Columns and labels:
Assay type in all cases: binding
myoglobin (Myo) = experiment: Intact protein MS photoaffinity labeling screen, myoglobin; conditions: intact protein MS after 10 min irradiation
Procedure: (§1) Using a plate-based format with one fragment per well, each fragment was incubated with the target proteins for 15 min to allow for the formation of non-covalent interactions. […] Finally, the results were directly analyzed from the plate using intact protein mass spectrometry by observing the mass additions that correspond to successful labeling (Fig. 2c, for labeling % values see Supplementary data). The library was first characterized against three benchmark proteins like carbonic anhydrase (CA), lysozyme (Lyo), and myoglobin (Myo).

KRas^G12D = test system: T1, KRas^G12D; experiment: Intact MS photoaffinity labeling screen, KRas G12D (302 nm, LCMS-TOF); conditions: for MS labeling percentage, KRas: KRas G12D, 302 nm 10 min; for KRAS-G12D: experimental hit status flag (0/1)
T1 construct: purchased GSK/GenScript
Procedure: as §1
(§2) The PhP library was screened against BRD4-BD1 and KRas^G12D as follows. […] The probe plate was placed on ice. 15 μL of protein stock solution (1 μM BRD4-BD1 (GSK/GenScript) or KRas^G12D (GSK/GenScript) in PBS buffer) was dispensed into wells containing fragments. The plate was left on ice for 15 min for incubation, then irradiated at 302 nm for 10 min, and centrifuged (1000 rpm, 1 min) to remove any bubbles. […] The deconvoluted spectra were analyzed using R Studio software.

STAT5B-NTD [1] = test system: T2, STAT5B-NTD; experiment: Intact MS photoaffinity labeling screen, STAT5B-NTD (365 nm, UHPLC-MS); conditions: for MS labeling percentage, STAT5B: STAT5B-NTD, 365 nm 10 min, no photocatalyst; for STAT5B-NTD: experimental hit status flag (0/1);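 on MS labeling percentage, STAT5B: 0.17 µL of 100 mM DMSO fragment stock added to the protein sample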
T2 construct: His-SUMO (N, cleaved yes); made in house; host or cells: E. coli BL21 RILP
Procedure: STAT5B protein in 7 µM concentration in pH 7.4 PBS buffer was pre-incubated with 0.17 µL PhP (in 100 mM DMSO solution) for 1 h at room temperature in dark. Irradiation was carried out at 4 °C for 10 min using 365 nm UV lamp.
(§3) During the analysis, the column temperature was maintained at a constant 60 °C, and a sample volume of 3 µL was injected for each analysis. Data acquisition was conducted in positive ion mode within the m/z 100–2000 (mass-to-charge ratio) range. For the full protocol and spectra of the hits, see Supplementary Note 2.

STAT5B-NTD [2] = test system: T2, STAT5B-NTD; experiment: Intact MS labeling screen, STAT5B-NTD conjugated with photocatalyst Ir-G2-PEG3-COOH (450 nm); conditions: 450 nm 10 min;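 further: 0.14 µL of 100 mM DMSO fragment stock added to the conjugate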
Procedure: For the photocatalysis experiments, 1.4 µL photocatalyst (in 1.4 mM DMSO solution, 10 eq) was pre-incubated with 1.5 µL coupling reagent (0.75 µL, 5.6 mM EDC (20 eq)+0.75 µL 4.2 mM NHS and 1.5 µL 2.1 mM (15 eq) BOP for 30 min in dark. 30 µL STAT5B-NTD (in 7 µM concentration) was added and incubated further at room temperature overnight or at 37 °C for 1 h in dark. After addition of 0.14 µL PhP (in 100 mM DMSO) the solution was further incubated in dark for 1 h. Irradiation was carried out using 450 nm LED lamp (7.6Vx0A) for 10 min at 4 °C.
as §3

lysozyme (Lyo) = experiment: Intact protein MS photoaffinity labeling screen, lysozyme; conditions: intact protein MS after 10 min irradiation
Procedure: as §1

BRD4-BD1 = test system: T3, BRD4-BD1; experiment: Intact MS photoaffinity labeling screen, BRD4-BD1 (302 nm, LCMS-TOF); conditions: for MS labeling percentage, BRD4: BRD4-BD1, 302 nm 10 min; for BRD4-BD1: experimental hit status flag (0/1)
T3 construct: screened the PhP library against the first bromodomain of BRD4 (BRD4-BD1); purchased GSK/GenScript
Procedure: as §1, §2

[3] = test system: carbonic anhydrase II (CA); experiment: Intact protein MS photoaffinity labeling screen, carbonic anhydrase; conditions: intact protein MS after 10 min irradiation
Procedure: as §1

| Compound | MS labeling percentage, Myo (myoglobin (Myo)) | MS labeling percentage, KRas (KRas^G12D) | KRAS-G12D (KRas^G12D) | MS labeling percentage, STAT5B (STAT5B-NTD [1]) | STAT5B-NTD (STAT5B-NTD [1]) | MS labeling percentage, STAT5B+photocat (STAT5B-NTD [2]) | MS labeling percentage, Lyo (lysozyme (Lyo)) | MS labeling percentage, BRD4 (BRD4-BD1) | BRD4-BD1 (BRD4-BD1) | MS labeling percentage, CA [3] |
| --- | --- | --- | --- | --- | --- | --- | --- | --- | --- | --- |
| CCOC(=O)c1c(NC(=O)CCC2(C)N=N2)sc2c1CCN(Cc1ccccc1)C2 [PhP002, N1=NC1(C)CCC(=O)Nc(s2)c(C(=O)OCC)c(c23)CCN(C3)Cc4ccccc4] | 0.1% | 0.2% | 0 | 0% | 0 | 0% | 0% | 0.1% | 0 | 0.2% |
| Cc1[nH]c2ccc(CNC(=O)CCC3(C)N=N3)cc2c1C [PhP004, Cc([nH]1)c(C)c(c12)cc(cc2)CNC(=O)CCC3(C)N=N3] | 0.3% | 0.7% | 0 | 2.9% | 0 | 13% | 0% |  | 0 | 0.1% |
| CCOC(=O)[C@H](NC(=O)CCC1(C)N=N1)c1ccccc1 [PhP005, c1ccccc1[C@H](C(=O)OCC)NC(=O)CCC2(C)N=N2] | 0.1% | 0% | 0 | 2% | 0 | 1.5% | 0% | 0.1% | 0 | 0.1% |
| COc1ccc(-c2csc(CCNC(=O)CCC3(C)N=N3)n2)cc1 [PhP006, COc1ccc(cc1)-c2csc(n2)CCNC(=O)CCC3(C)N=N3] | 0.3% | 1.3% | 0 | 0% | 0 | 3.3% | 0% | 2.3% | 0 | 0.6% |
| CN1C(=O)COc2ccc(NC(=O)CCC3(C)N=N3)cc21 [PhP007, O1CC(=O)N(C)c(c12)cc(cc2)NC(=O)CCC3(C)N=N3] | 0.1% | 0.2% | 0 | 1% | 0 | 12.7% | 1.8% | 0.4% | 0 | 0.2% |
| CC1(CCC(=O)NCc2cncc3ccccc23)N=N1 [PhP008, N1=NC1(C)CCC(=O)NCc(cnc2)c(c23)cccc3] | 0.6% | 1% | 0 | 2.9% | 0 | 19.6% | 0% | 0.5% | 0 | 0.9% |
| Cc1[nH]cnc1CNC(=O)CCC1(C)N=N1 [PhP009, Cc1[nH]cnc1CNC(=O)CCC2(C)N=N2] | 0.4% | 0.7% | 0 | 1% | 0 | 1% | 0% | 0.7% | 0 | 0.6% |
| CC1(CCC(=O)NCc2ccc(N3CCC(CO)CC3)cc2)N=N1 [PhP010, N1=NC1(C)CCC(=O)NCc2ccc(cc2)N3CCC(CO)CC3] | 0% | 0.5% | 0 | 1% | 0 | 0% | 0% | 0.3% | 0 | 0% |
